Drawing on patent publication US10526320B2, “Pyrrolidine derivatives as PPAR agonists” (GUANGDONG RAYNOVENT BIOTECH CO., LTD., priority 2016, dated 2020), this text covers EC50 and Emax for 9 compounds.

Like-named read-outs stand apart in the source and are kept apart here.

Common to all, as to format: cell-based
One test concerns the target T1, PPAR Delta (Homo sapiens, UniProt Q03181).
T1 sequence (Q03181 1-441): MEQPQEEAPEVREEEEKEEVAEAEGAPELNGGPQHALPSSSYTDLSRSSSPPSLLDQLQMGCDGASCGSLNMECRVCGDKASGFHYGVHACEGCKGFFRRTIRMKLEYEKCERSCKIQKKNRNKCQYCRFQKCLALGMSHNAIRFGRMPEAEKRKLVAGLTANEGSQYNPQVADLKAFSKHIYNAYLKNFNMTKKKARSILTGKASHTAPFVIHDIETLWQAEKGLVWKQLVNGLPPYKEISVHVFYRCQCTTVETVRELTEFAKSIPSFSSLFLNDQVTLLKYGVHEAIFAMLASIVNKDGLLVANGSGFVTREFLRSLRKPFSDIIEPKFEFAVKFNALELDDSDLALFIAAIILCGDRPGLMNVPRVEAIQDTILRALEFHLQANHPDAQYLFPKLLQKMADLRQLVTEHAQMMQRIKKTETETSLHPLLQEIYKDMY
Kind of test: PathHunter NHR protein interaction / nuclear translocation agonist test, PPAR Delta. The conditions noted are these: for EC50: agonist mode, read-out: PPAR Delta EC50; for Emax: read-out: PPAR Delta Maximum Activation Response %.

A further test addresses T2, PPAR Alpha (Homo sapiens, UniProt Q07869).
T2 sequence (Q07869 1-468): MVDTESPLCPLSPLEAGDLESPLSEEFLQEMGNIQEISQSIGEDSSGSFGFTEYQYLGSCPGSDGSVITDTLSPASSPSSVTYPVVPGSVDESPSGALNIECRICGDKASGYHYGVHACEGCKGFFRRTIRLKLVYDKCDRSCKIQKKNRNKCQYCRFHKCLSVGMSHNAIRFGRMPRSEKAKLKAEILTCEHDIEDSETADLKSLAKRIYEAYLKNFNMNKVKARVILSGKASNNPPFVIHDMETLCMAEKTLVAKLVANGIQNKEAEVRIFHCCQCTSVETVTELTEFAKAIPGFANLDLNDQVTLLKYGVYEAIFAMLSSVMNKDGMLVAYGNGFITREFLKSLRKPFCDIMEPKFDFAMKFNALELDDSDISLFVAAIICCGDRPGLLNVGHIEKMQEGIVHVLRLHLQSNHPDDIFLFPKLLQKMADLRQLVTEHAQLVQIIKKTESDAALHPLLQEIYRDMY
Kind of test: PathHunter NHR protein interaction / nuclear translocation agonist test, PPAR Alpha. Particulars: for Emax: read-out: PPAR Alpha Maximum Activation Response %.

A further test has as its target T3, PPAR Gamma (Homo sapiens, UniProt P37231).
T3 sequence (P37231 1-505): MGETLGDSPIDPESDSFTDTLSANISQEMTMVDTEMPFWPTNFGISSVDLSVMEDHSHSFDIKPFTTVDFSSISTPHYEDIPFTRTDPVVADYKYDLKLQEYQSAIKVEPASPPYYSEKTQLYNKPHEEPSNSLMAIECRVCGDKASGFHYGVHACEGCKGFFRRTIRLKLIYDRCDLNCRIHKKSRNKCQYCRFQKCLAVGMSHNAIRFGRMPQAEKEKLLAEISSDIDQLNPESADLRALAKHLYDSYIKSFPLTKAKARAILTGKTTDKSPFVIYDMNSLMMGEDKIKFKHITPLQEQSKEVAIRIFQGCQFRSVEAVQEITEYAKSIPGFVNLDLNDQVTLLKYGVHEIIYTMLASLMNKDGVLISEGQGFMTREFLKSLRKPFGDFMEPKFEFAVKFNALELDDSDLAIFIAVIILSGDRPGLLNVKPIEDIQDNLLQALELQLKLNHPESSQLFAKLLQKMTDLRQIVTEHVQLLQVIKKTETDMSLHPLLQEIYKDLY
The experiment in a line: PathHunter NHR protein interaction / nuclear translocation agonist test, PPAR Gamma. Particulars: for Emax: read-out: PPAR Gamma Maximum Activation Response %.

Setting [1] is: relative to known PPARδ agonist L-165,041 = 100%.
The mark [2] stands for this setting: agonist mode, read-out: PPAR Alpha EC50.
[3] abbreviates: agonist mode, read-out: PPAR Gamma EC50.
Where [4] appears, read: relative to known PPARγ agonist Troglitazone = 100%.

Consider `CSc1ccc(C(=O)C2CN(C(=O)Oc3ccccc3)CC2Cc2ccc(OC(C)(C)C(=O)O)cc2)cc1` (single isomer, unassigned) [Compound 76], for which the EC50 at PPAR Delta is 100 to 150 nM; at PPAR Alpha (setting [2]), 100 to 150 nM; on PPAR Gamma (setting [3]) it was > 250 nM. For the same compound, the Emax at PPAR Delta (setting [1]), at PPAR Alpha and at PPAR Gamma (setting [4]) was 80 to 100% each time.
For the compound `CSc1ccc(C(=O)C2CN(C(=O)Oc3ccccc3)CC2Cc2ccc(OC(C)(C)C(=O)O)c(C)c2)cc1` (single isomer, unassigned) [Compound 77], the EC50 on PPAR Delta was 150 to 200 nM; at PPAR Alpha (setting [2]), 150 to 200 nM; on PPAR Gamma (setting [3]), > 250 nM. Besides, the Emax on PPAR Delta (setting [1]), on PPAR Alpha and on PPAR Gamma (setting [4]) was 80 to 100% throughout.
Take `CSc1ccc(C(=O)C2CN(C(=O)Oc3ccccc3)CC2Cc2ccc(OC(C)(C)C(=O)O)c(F)c2)cc1` (single isomer, unassigned) [Compound 78]: the EC50 on PPAR Delta is 100 to 150 nM; on PPAR Alpha (setting [2]), 100 to 150 nM; on PPAR Gamma (setting [3]) it was > 250 nM. In addition, the Emax at PPAR Delta (setting [1]), on PPAR Alpha and at PPAR Gamma (setting [4]) was 80 to 100% in each case.
`CSc1ccc(C(=O)C2CN(C(=O)Oc3ccccc3)CC2CCc2ccc(OC(C)(C)C(=O)O)cc2)cc1` (single isomer, unassigned) [Compound 80]: the EC50 at PPAR Delta is 150 to 200 nM; at PPAR Alpha (setting [2]) it was < 100 nM; on PPAR Gamma (setting [3]) it was > 250 nM. The Emax on PPAR Delta (setting [1]), on PPAR Alpha and on PPAR Gamma (setting [4]) was 80 to 100% in each case.
For `CSc1ccc(C(=O)C2CN(C(=O)Oc3ccccc3)CC2CCc2ccc(OC(C)(C)C(=O)O)c(C)c2)cc1` (single isomer, unassigned) [Compound 81], the EC50 on PPAR Delta is 100 to 150 nM; on PPAR Alpha (setting [2]), < 100 nM; on PPAR Gamma (setting [3]), 200 to 250 nM. For the same compound, the Emax at PPAR Delta (setting [1]), at PPAR Alpha and at PPAR Gamma (setting [4]) was 80 to 100% throughout.
Regarding `CSc1ccc(C(=O)C2CN(C(=O)Oc3ccccc3)CC2CCc2ccc(OC(C)(C)C(=O)O)c(F)c2)cc1` (single isomer, unassigned) [Compound 82], the results for the EC50 at PPAR Delta, at PPAR Alpha (setting [2]) and at PPAR Gamma (setting [3]) were 100 to 150 nM, < 100 nM and 200 to 250 nM, respectively. Further, the Emax on PPAR Delta (setting [1]), on PPAR Alpha and at PPAR Gamma (setting [4]) was 80 to 100% each time.
`CSc1ccc(C(=O)C2CN(C(=O)Oc3ccccc3)CC2Cc2cc(C)c(OC(C)(C)C(=O)O)c(C)c2)cc1` (stereo not drawn) [Compound 26]: the EC50 on PPAR Delta was < 100 nM; on PPAR Alpha (PPAR Alpha EC50 nM), < 100 nM; at PPAR Gamma (PPAR Gamma EC50 nM), > 250 nM. Further, the Emax on PPAR Delta lay within 50 to 80%.
Turning to `CSc1ccc(C(=O)C2CN(C(=O)Oc3ccc(Br)cc3)CC2c2cc(C)c(OC(C)(C)C(=O)O)c(C)c2)cc1` (stereo not drawn) [Compound 46], the EC50 was < 100 nM on PPAR Delta, < 100 nM on PPAR Alpha (setting [2]) and > 250 nM on PPAR Gamma (setting [3]). Besides, the Emax on PPAR Delta, on PPAR Alpha and on PPAR Gamma was 80 to 100% in each case.
For the compound `CSc1ccc(C(=O)/C=C/c2cc(C)c(OC(C)(C)C(=O)O)c(C)c2)cc1` [GFT-505, Elafibranor, reference compound], the Emax on PPAR Delta lay within 50 to 80%; on PPAR Alpha it was 80 to 100%; on PPAR Gamma it was 50 to 80%. In addition, the EC50 at PPAR Alpha (setting [2]) and on PPAR Gamma (setting [3]) was > 250 nM in each case.
